The values below come from patent US11725006B2, “Hydrophilic berberine-type derivative and application thereof in preparing drug” (INSTITUTE OF MATERIA MEDICA, CHINESE ACADEMY OF MEDICAL …, priority 2018, dated 2023).

The subject of data set [1] is colorectal cancer model mice induced by AOM/DSS. Description: Colorectal cancer model mice induced by AOM/DSS. The format is in vivo, C57b1/6j mice. The note with it: 250 mg/kg by gavage, two weeks on, one week off, 12 weeks.
Method: C57b1/6j mice were randomly grouped according to the above experimental grouping scheme, five mice in the normal control group, and ten other groups.
After one week's normal pre-feeding, normal feeding was done for another two weeks. From the 3rd week on, 0.5% carboxymethylcellulose sodium water solution was administered by gavage in the amount of 10 ml/kg. Administration mode was such that the drug was administered once a day for 12 weeks until the end of the experiment.
After one week of normal pre-feeding, AOM was given by intraperitoneal injection at a dose of 10 mg/kg (Prepared by a concentration of 10 mg AOM in 10 ml of normal saline). Then the animals were fed normally for one week, which was recorded as the first week of the experiment. At the beginning of the second week, mice were allowed to drink the drinking aqueous solution containing 2% DSS freely for one week. […] From the 3rd week on, 0.5% carboxymethylcellulose sodium water solution was administrated by gavage at the amount of 10 ml/kg. The administration mode was such that the drug was administered once a day for 12 weeks until the end of the experiment. (3) Positive Drug Capecitabine Group
After one week of normal pre-feeding, AOM was given by intraperitoneal injection at a dose of 10 mg/kg (Prepared by a concentration of 10 mg AOM in 10 ml of normal saline). Then the animals were fed normally for one week, which was recorded as the first week of the experiment. At the beginning of the second week, mice were allowed to drink the drinking water solution containing 2% DSS freely for one week. […] The administration lasted for 12 weeks (including the weeks of drug withdrawal).
After one week of normal pre-feeding, AOM was given by intraperitoneal injection at a dose of 10 mg/kg (prepared by a concentration of 10 mg AOM in 10 ml of normal saline). Then the animals were fed normally for one week, which was recorded as the first week of the experiment. At the beginning of the second week, mice were allowed to drink the drinking water solution containing 2% DSS freely for one week. […] The administration mode was such that the drug was administered once a day, up to the end of the experiment. The administration lasted for 12 weeks.
The calculation method of calculated tumor burden value is as follows: Tumor burden=(Mean tumor diameter/numbers of mice)^2×(Tumor number/numbers of mice)
A short description of data set [2]: Alcohol-solubility examination in 95% ethanol under refluxing. The format is physicochemical. Particulars: per gram of compound, within 30 minutes. The procedure:
The compounds of the invention were weighed and placed into different amount of 95% ethanol solvent under refluxing, respectively. The dissolution status within 30 minutes was observed. If there were no visible solute particle, it would be regarded as complete dissolution.

Data set [3] can be described thus: Hydrosolubility examination in pure water. The class given is physicochemical. Particulars: per milliliter of purified water, 25° C.±2° C., visual, within 30 minutes. As for the experimental part: The compounds of the invention were weighed and placed into a certain amount of pure water solvent under 25° C.±2° C., respectively. […] If there were no visible solute particle, it would be regarded as complete dissolution.

The subject of data set [4] is C57b1/6j mice model of ulcerative colitis induced by DSS. In words: Acute ulcerative colitis model induced by dextran sodium sulfate (DSS). The class given is in vivo. Particulars: for Percentage of colon contracture: compared to colon length in normal control group; for body weight loss percentage: compared with body weight at the beginning of the experiment; for Body weight change rate: end versus start. As for the experimental part: (1) Animals: C57b1/6j mice, male (20-22 g); seven mice in each group.
(3) Dosage and times of administration: The positive drug was 500 mg/kg, both dihydrocoptisine and the compounds of the invention were 100 mg/kg, once a day for eight days.
(4) Experimental methods: The method of this experiment was a literature method: see Zhi-Hui Zhang, Hai-Jing Zhang, An-Jun Deng, Bo Wang, Zhi-Hong Li,
Yang Liu, Lian-Qiu Wu, Wen-Jie Wang, and Hai-Lin Qin. Synthesis and Structure-activity Relationships of Quaternary Coptisine Derivatives as Potential Anti-ulcerative Colitis Agents. Journal of Medicinal Chemistry. 2015, 58, 7557-7571.
The effect of the compounds of the invention on the disease activity index (DAI) and the inhibition rate of DAI in the C57b1/6j mice model of ulcerative colitis induced by DSS was investigated. […] In Table 5, **, P<0.01, compared with the normal control group; ^#, P<0.05 and ^##, P<0.01, compared with the model group.

Data set [5] relates to acute ear swelling model of mice caused by croton oil. Description: Acute ear swelling model of mice caused by croton oil. The format is in vivo, Balb/c mice. Particulars: 5 mg/kg by gavage.
Method: (1) Animals: Balb/c mice, male (20-22 g); eight mice in each group.
(4) Experimental methods: the mice in the model group were administrated 0.9% normal saline (dosage volume: 10 ml/kg) by the intragastrical administration. In the positive drug group, the positive drug was prepared by 5 mg/kg of dosage using 0.9% normal saline as the solvent and was administrated by gavage (dosage volume: 10 ml/kg). In the compounds of the invention administration groups, the compounds were prepared by 100 mg/kg of dosage using 0.9% normal saline as the solvent and were administrated by gavage (dosage volume: 10 ml/kg). After the last administration, all mice were induced to inflammation by daubing 20 μl of croton oil acetone solution on both sides of the right ear, the left ear not daubed as normal control ear. After 4 hours of modeling, the mice were killed, the ears were cut off along the auricle baseline, and the ear pieces of each subject were taken off at the counterpart place of each ear with a perforator and weighed. The difference between the weight of the right ear piece and that of the left ear piece indicated the degree of inflammatory swelling. The inhibition rate of drugs on ear swelling (%) was calculated by comparing the ear swelling degree values of each administration group and positive drug group with the data of model group. Inhibition rate (%)=[(swelling degree of model group−swelling degree of administration group)/swelling degree of model group]×100 (%)
(5) Statistical analysis: The experimental results were expressed as ‘mean±sd’. The statistical differences between the two groups were calculated and analyzed by t-test method. ^#, indicates P<0.05 (compared with the model group); and ^##, P<0.01 (compared with the model group).
The subject of data set [6] is Candida albicans MCC (F) 98001. Description: MIC by twofold microdilution broth method. The class given is cell-based. Particulars: 24 h; for MIC: Candida albicans, read-out: MIC C. albicans. The procedure:
(§1) (1) Strains: Staphylococcus aureus, Escherichia colt, Candida albicans MCC (F) 98001.
(§2) (2) Experimental method: the anti-bacterial activity of the compounds of the invention was evaluated by determining the minimum inhibitory concentration (MIC) using the twofold microdilution broth method. The compounds of the invention and the reference substances (quaternary ammonium salt substrates of berberine-type alkaloids and levofloxacin) were prepared into a 20000 μg/ml stock solution with DMSO for use. S. aureus and E. coli were diluted using MHB (Mueller Hinton Broth) medium, and C. albicans using Sabouraud medium, all prepared into 10^6 CFU (colony forming unit) concentration as bacterial suspensions for use. The determination steps of MIC are as follows. First, 180 μl of MHB medium (for S. aureus and E. coli) or Sabouraud Medium (for C. albicans) was transferred to the first well in each row of the sterile 96 well plate, and 100 μl to the second to the 11th wells of each row, and 200 μl to the 12th well as negative blank control well. 20 μl sample stock solution was taken and added to the first well. After mixed up, 100 μl was taken from the first well and transferred to the second well. The same as mentioned above, the second well was mixed up, 100 μl of mixed content was taken from the second well and added to the third well, as described above. As such, the same operation was continued till the 10th well, and finally 100 μl of content was drawn from the 10th well and discarded. The bacterial suspension of 100 μl was added to each of the aforementioned from first to eleven wells and mixed up. Three parallel groups for each sample were set up. The 96 well plates were put into the incubator to culture for 24 h. […] The MIC values of each sample to be tested as well as those of the references were observed and recorded with the naked eyes.

For another data set, the system named is Escherichia coli. Description: MIC by twofold microdilution broth method. Particulars: 24 h, read-out: MIC E. coli. The class given is cell-based. As for the experimental part: as §1, §2
(In general: Dilution methods test growth across graded concentrations, often in twofold steps.)

The subject of a further data set is Staphylococcus aureus. Description: MIC by twofold microdilution broth method. The format is cell-based. The note with it: 24 h; for MIC: Staphylococcus aureus, read-out: MIC S. aureus. As for the experimental part:
as §1, §2

Setting [7] is: 100 mg/kg, listed as dihydrocoptisine.
Setting [8] is: Sabouraud medium, 25° C., stock solution 20000 μg/ml.

Structures are written as SMILES. “And” between values parts separate entries of the source, which are not always exact repeats. Equal entries are not always repeated. Structures can show the parent of a compound that is named as a salt. Where two headings read alike, the source gives them in different places. Marks after values point to notes of the source that are not given here.

Consider `CCCCCOC(=O)Nc1nc(=O)n([C@@H]2O[C@H](C)[C@@H](O)[C@H]2O)cc1F` [Capecitabine], for which, in data set [1], the Spleen weight is given as 0.228 ± 0.029 g and the “Tumor burden (relatively calculated value)” value is recorded as 42.69 ± 10.26 piece. In data set [1] (listed as capecitabine), the Spleen weight was 0.228 ± 0.029 g and the “Tumor burden (relatively calculated value)” value is reported as 42.69±10.26 piece.
In the case of `ClC(Cl)c1c2c3c(ccc2cc2[n+]1CCc1cc4c(cc1-2)OCO4)OCO3.O=C([O-])/C=C\C(=O)O` [Compound 25, 8-dichloromethyl coptisine hydrogen maleate], the “amount of 95% ethanol solvent required for dissolving each gram” value (“amount of 95% ethanol solvent required” for short) in data set [2] stood at 23 mL.
As for `COc1ccc2cc3[n+](c(C(Cl)Cl)c2c1OC)CCc1cc2c(cc1-3)OCO2.O=C([O-])/C=C\C(=O)O` [Compound 27, 8-dichloromethyl berberine hydrogen maleate], the “amount dissolved in each milliliter of water” value (shortened to “amount dissolved”) in data set [3] is given as 3.83 mg. The “amount of 95% ethanol solvent required” value in data set [2] was 5.8 mL.
For the compound `Cc1ccc(S(=O)(=O)[O-])cc1.ClC(Cl)c1c2c3c(ccc2cc2[n+]1CCc1cc4c(cc1-2)OCO4)OCO3` [Compound 29, 8-dichloromethyl coptisine tosylate], the “amount of 95% ethanol solvent required” value in data set [2] was determined as 24 mL.
`COc1ccc2cc3[n+](c(C(Cl)Cl)c2c1OC)CCc1cc2c(cc1-3)OCO2.Cc1ccc(S(=O)(=O)[O-])cc1` [Compound 31, 8-dichloromethyl berberine tosylate]: in data set [3], the “amount dissolved” value turned out to be 5.0 mg. Moreover, the “amount of 95% ethanol solvent required” value in data set [2] was found to be 7 mL.
On the same counts, the results for `COc1ccc2cc3[n+](c(C(Cl)Cl)c2c1OC)CCc1cc2c(cc1-3)OCO2.O=S(=O)([O-])c1ccccc1` [Compound 47, 8-dichloromethyl berberine benzenesulfonate] are 6.45 mg and 7 mL.
Take `C1=C2c3cc4c(cc3CCN2Cc2c1ccc1c2OCO1)OCO4` [Dihydrocoptisine, dihydrocoptisine]: in data set [4] (100 mg/kg), the Colon length is on record as 6.23 ± 0.14^## cm, the DAI is recorded as 2.24 ± 0.97^##, the DAI inhibition rate is 44.03^## % and the “Percentage of colon contracture” value is 23.93^## %. Moreover, in data set [4] (100 mg/kg), the “body weight loss percentage” value was 18.77% and the “Body weight change rate” value was −18.77^# %. Besides, in data set [4] (100 mg/kg once a day for eight days), the “Body weight (g) X ± SD End” value is given as 18.43 ± 2.01 g. In data set [4] (setting [7]), the “Percentage of colon contracture” value is listed as 23.93%, the Colon length is 6.23 cm and the DAI inhibition rate stood at 44.03%.
Take `COc1ccc2c(c1)c(CC(=O)O)c(C)n2C(=O)c1ccc(Cl)cc1` [Indomethacin]: the figures for the “Inhibition rate (ear swelling)” value in data set [5] and in data set [5] (listed as indomethacin) were 26.01^# % and 26.01%, respectively. In data set [5] (4 hours after croton oil), the Degree of swelling is given as 70.26 ± 20.97 mg.
For `C[C@H]1COc2c(N3CCN(C)CC3)c(F)cc3c(=O)c(C(=O)O)cn1c23` [Levofloxacin], the MIC (usually the lowest concentration found to suppress growth) in data set [6] (setting [8]) is > 250 µg/mL; in the data set with Escherichia coli (MHB medium, 37° C.), < 1.95 µg/mL; in the data set on Staphylococcus aureus (MHB medium, 37° C.), < 1.95 µg/mL. In data set [6] (setting [8]), the “MIC C. albicans” value is listed as “more than 250 ug/mL”.
For `O=C(O)c1cc(/N=N/c2ccc(S(=O)(=O)Nc3ccccn3)cc2)ccc1O` [SASP, salazosulfapyridine], in data set [4] (500 mg/kg), the Colon length was 5.90 cm and 5.90 ± 0.30^# cm; the DAI is reported as 3.07 ± 1.01^#; the DAI inhibition rate is on record as 23.33%; the “Percentage of colon contracture” value was 28.43%. In data set [4] (500 mg/kg), the “body weight loss percentage” value is 27.70% and the “Body weight change rate” value was −27.70%. Besides, the “Body weight (g) X ± SD End” value in data set [4] (500 mg/kg once a day for eight days) is listed as 15.86 ± 1.58 g.
Take `COc1ccc2cc3[n+](cc2c1OC)CCc1cc2c(cc1-3)OCO2` [berberine hydrochloride]: the “amount dissolved” value in data set [3] is recorded as < 2 mg. Further, in data set [6] (setting [8]), the MIC stood at 250 µg/mL and the “MIC C. albicans” value amounted to 250 µg/mL. Also, the minimal inhibitory concentration (MIC) with Escherichia coli (MHB medium, 37° C.) stood at 250 µg/mL. For the same compound, in the data set on Staphylococcus aureus (MHB medium, 37° C.), the “MIC S. aureus” value was 125 µg/mL and the MIC came to 125 µg/mL.
Take `c1c2c(cc3c1OCO3)-c1cc3ccc4c(c3c[n+]1CC2)OCO4` [coptisine hydrochloride]: the “amount dissolved” value in data set [3] was “less than 1 mg”. Besides, the MIC is 250 µg/mL in data set [6], > 250 µg/mL in the data set with Escherichia coli and > 250 µg/mL in the data set with Staphylococcus aureus. For the same compound, in data set [6] (setting [8]), the “MIC C. albicans” value came to 250 µg/mL. In addition, the “MIC S. aureus” value against Staphylococcus aureus (MHB medium, 37° C.) was “more than 250 ug/mL”.
